Results taken from paper PMC10482691, “LTP induction by structural rather than enzymatic functions of CaMKII” (Nature, 2023).
Values joined by “and” are separate entries in the source; they are usually repeats but may differ in a detail not shown here. Equal entries are not always repeated.

Columns and labels:
[1] = target: SAPK2a(h) (Homo sapiens, UniProt Q16539); test: Kinase selectivity panel (residual activity at 1 μM); type: biochemical; details: inhibitor at 1 μM
[2] = test system: GFP–paCaMKII T286A in hippocampal neurons; test: paCaMKII T286A photoactivation: synaptic enrichment in hippocampal neurons; type: cell-based
Description: (§1) Neurons were wrapped in aluminium foil immediately following transfection and only exposed to red light in imaging. One image was then taken of each neuron to serve as a pre-photoactivation baseline. Immediately following this baseline image, paCaMKII was globally photoactivated with a 405 nm laser pulse (100 ms exposure, 75% laser power) once every 10 s for a total of 60 s. Neurons were then imaged 15 min after stimulation and assessed for CaMKII synaptic enrichment and dendritic spine growth.
(§2) Neuronal cultures were transfected on DIV 15–18 and imaged 24–48 h later. […] Two-dimensional maximum-intensity projection images were then generated and analysed using a custom-build programme in ImageJ. The programme utilizes combinatorial thresholding to mask regions of the cell that contain high-intensity puncta of postsynaptic density protein 95 (PSD95; a marker of the post-synaptic side of excitatory synapses in dendritic spines) and regions of the dendritic shaft that contain no fluorescence intensity of PSD95. As a measure of synaptic enrichment, the ratio of mean CaMKII fluorescence intensity of the PSD95 mask to the mean CaMKII fluorescence intensity in the dendritic shaft mask is measured. Spine growth was assessed by measuring the changes in mCherry cell fill fluorescence intensity within dendritic spine divided by the initial fluorescence intensity (F/F0).

[3] = target: FGFR1(h) (Homo sapiens, UniProt P11362); test: Kinase selectivity panel (residual activity at 1 μM); type: biochemical; details: inhibitor at 1 μM; read-out: residual kinase activity in % of maximal activity
[4] = target: Pim-1(h) (Homo sapiens, UniProt P11309); test: as above; type: biochemical; details: inhibitor at 1 μM; read-out: residual kinase activity in % of maximal activity
[5] = target: MAPK2(h) (Homo sapiens, UniProt P28482); test: as above; type: biochemical; details: inhibitor at 1 μM; read-out: residual kinase activity in % of maximal activity
[6] = target: Flt3(h) (Homo sapiens, UniProt P36888); test: as above; type: biochemical; details: inhibitor at 1 μM; read-out: residual kinase activity in % of maximal activity
[7] = target: JNK2α2(h) (Homo sapiens, UniProt P45984); test: as above; type: biochemical; details: inhibitor at 1 μM
[8] = target: mTOR(h) (Homo sapiens, UniProt P42345); test: as above; type: biochemical; details: inhibitor at 1 μM; read-out: residual kinase activity in % of maximal activity
[9] = target: PKBγ(h) (Homo sapiens, UniProt Q9Y243); test: as above; type: biochemical; details: inhibitor at 1 μM; read-out: residual kinase activity in % of maximal activity
[10] = target: CaMKIIβ(h) (Homo sapiens, UniProt Q13554); test: as above; type: biochemical; details: inhibitor at 1 μM; read-out: residual kinase activity in % of maximal activity
[11] = test system: CA3–CA1 Schaffer collateral pathway LTP; test: LTP at CA3–CA1 synapse, field recordings in acute hippocampal slices of WT mice; type: cell-based, mouse; details: for LTP quantification (fEPSP slope, last 10 min post-HFS, normalized to baseline): 15 min before HFS to 5 min after
[12] = target: FAK(h) (Homo sapiens, UniProt Q05397); test: Kinase selectivity panel (residual activity at 1 μM); type: biochemical; details: inhibitor at 1 μM; read-out: residual kinase activity in % of maximal activity
[13] = test system: GFP–CaMKII K42M in rat hippocampal neurons; test: cLTP-induced CaMKII synaptic enrichment in dissociated hippocampal cultures (GFP–CaMKII K42M); type: cell-based; details: sheet 4e
[14] = test system: GFP–paCaMKII F89G in hippocampal neurons; test: paCaMKII F89G photoactivation: synaptic enrichment in hippocampal neurons; type: cell-based
Description: as §1, §2

Sequence of CaMKIIβ(h) (Q13554 whole entry): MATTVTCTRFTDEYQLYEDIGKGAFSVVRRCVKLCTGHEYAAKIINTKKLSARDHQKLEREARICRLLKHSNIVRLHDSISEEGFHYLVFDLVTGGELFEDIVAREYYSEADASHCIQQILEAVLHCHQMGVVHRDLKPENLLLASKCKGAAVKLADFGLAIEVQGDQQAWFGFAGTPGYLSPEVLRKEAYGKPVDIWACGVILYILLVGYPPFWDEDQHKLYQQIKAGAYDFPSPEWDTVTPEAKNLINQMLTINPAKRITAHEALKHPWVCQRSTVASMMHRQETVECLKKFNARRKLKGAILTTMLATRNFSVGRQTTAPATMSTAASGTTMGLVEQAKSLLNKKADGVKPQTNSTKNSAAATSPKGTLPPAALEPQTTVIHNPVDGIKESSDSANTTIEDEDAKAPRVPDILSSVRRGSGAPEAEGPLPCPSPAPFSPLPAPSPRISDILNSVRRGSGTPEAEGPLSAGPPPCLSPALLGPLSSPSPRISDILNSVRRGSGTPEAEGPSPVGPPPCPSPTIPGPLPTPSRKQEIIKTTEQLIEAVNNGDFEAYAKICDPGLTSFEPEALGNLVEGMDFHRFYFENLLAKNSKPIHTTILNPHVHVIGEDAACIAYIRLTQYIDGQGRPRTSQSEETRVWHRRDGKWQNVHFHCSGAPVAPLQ
Sequence of FGFR1(h) (P11362 22-822): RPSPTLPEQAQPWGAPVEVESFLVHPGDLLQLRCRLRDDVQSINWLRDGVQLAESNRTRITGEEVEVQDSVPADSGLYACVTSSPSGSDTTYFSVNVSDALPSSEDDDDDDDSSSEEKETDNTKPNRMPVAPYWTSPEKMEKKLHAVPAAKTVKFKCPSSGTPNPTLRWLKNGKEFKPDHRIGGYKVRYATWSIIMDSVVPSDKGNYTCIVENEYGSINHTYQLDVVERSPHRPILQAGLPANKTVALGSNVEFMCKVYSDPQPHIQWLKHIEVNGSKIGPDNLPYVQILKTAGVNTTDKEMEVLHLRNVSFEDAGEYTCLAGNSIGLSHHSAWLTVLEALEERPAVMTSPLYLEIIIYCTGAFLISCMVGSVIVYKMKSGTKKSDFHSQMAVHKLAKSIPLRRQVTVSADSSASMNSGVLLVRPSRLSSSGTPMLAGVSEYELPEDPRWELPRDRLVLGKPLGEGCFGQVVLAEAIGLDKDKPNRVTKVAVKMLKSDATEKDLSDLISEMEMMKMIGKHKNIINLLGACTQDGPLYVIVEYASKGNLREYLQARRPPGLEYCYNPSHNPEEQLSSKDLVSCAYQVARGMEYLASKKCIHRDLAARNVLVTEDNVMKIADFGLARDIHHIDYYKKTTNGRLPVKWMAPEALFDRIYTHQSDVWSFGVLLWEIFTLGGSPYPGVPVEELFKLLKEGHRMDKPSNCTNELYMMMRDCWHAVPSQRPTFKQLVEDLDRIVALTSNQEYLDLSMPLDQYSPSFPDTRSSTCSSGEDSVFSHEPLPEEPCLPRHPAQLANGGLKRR
Sequence of FAK(h) (Q05397 whole entry): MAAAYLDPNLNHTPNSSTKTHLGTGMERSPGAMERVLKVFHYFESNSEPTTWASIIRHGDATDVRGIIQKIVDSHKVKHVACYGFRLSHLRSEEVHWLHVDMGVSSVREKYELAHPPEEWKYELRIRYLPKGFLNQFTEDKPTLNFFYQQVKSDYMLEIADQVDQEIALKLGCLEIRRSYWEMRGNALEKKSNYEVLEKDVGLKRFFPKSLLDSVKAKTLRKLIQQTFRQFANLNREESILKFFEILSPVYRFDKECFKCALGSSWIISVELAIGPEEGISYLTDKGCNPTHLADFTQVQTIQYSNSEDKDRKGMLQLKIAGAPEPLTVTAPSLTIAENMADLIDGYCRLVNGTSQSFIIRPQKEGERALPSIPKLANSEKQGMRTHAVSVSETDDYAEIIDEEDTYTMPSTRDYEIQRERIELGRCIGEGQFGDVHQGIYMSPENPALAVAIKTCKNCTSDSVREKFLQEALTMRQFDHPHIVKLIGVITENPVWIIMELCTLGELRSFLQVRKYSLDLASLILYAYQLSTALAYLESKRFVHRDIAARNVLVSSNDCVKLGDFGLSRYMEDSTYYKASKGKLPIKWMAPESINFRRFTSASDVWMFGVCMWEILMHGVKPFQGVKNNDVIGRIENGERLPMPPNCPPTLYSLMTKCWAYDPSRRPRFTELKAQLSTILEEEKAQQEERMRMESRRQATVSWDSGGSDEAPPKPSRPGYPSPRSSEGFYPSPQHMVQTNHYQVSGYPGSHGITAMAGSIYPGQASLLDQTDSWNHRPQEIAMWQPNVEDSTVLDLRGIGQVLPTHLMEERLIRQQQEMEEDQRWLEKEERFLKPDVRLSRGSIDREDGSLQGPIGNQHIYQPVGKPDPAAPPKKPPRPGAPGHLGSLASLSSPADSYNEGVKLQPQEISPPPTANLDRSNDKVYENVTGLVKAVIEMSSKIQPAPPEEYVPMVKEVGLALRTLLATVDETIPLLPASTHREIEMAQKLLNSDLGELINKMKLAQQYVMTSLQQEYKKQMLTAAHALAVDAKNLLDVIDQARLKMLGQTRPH
Sequence of MAPK2(h) (P28482 whole entry): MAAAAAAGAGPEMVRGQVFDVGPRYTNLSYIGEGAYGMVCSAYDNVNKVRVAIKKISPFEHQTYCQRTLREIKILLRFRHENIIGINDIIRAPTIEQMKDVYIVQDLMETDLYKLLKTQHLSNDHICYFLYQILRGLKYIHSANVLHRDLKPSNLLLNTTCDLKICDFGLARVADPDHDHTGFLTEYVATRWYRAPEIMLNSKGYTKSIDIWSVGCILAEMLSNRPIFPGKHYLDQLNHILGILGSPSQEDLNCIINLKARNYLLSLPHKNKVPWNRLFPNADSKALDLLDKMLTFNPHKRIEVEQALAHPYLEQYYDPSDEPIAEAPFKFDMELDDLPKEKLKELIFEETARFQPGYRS
Sequence of Pim-1(h) (P11309 whole entry): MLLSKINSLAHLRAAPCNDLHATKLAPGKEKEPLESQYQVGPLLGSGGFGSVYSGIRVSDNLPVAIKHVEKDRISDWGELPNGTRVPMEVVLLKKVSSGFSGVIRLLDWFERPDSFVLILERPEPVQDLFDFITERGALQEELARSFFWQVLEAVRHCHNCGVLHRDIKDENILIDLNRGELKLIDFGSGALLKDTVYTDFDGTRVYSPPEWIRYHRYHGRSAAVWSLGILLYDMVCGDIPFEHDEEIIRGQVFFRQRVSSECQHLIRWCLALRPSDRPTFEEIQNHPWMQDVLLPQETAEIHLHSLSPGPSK
Sequence of SAPK2a(h) (Q16539 whole entry): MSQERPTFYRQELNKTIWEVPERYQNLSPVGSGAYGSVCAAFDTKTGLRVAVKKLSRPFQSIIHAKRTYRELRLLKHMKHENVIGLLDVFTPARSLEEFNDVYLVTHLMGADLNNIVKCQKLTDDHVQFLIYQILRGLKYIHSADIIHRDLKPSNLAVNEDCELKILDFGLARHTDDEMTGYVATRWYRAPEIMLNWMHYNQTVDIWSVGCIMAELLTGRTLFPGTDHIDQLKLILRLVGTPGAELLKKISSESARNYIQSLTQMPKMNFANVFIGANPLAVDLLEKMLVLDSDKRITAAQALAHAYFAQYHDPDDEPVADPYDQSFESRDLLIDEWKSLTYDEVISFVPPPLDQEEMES
Sequence of Flt3(h) (P36888 27-993): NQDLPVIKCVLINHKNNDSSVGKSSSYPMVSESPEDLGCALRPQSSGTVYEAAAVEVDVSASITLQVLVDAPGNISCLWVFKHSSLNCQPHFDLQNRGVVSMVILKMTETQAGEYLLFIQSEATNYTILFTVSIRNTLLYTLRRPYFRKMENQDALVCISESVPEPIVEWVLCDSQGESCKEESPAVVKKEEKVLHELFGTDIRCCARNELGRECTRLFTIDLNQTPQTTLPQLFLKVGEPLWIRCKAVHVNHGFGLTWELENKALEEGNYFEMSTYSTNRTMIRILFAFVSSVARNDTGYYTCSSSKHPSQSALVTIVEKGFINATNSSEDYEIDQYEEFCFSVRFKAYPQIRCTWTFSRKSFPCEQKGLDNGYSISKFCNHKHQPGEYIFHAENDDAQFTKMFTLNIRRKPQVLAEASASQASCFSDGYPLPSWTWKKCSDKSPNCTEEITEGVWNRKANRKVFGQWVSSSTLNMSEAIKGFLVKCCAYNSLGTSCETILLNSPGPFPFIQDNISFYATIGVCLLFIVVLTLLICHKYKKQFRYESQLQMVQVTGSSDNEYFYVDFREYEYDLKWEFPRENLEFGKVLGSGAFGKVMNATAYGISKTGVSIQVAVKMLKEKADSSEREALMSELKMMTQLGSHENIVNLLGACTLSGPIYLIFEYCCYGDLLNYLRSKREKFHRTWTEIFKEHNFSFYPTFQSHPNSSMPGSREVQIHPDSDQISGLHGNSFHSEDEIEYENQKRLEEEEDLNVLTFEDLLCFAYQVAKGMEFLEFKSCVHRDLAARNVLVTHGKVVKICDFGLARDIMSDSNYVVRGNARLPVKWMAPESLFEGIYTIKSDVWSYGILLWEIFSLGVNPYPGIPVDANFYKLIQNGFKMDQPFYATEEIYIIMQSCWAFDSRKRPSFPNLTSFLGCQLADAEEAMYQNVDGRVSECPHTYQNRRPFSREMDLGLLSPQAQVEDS
Sequence of JNK2α2(h) (P45984 whole entry): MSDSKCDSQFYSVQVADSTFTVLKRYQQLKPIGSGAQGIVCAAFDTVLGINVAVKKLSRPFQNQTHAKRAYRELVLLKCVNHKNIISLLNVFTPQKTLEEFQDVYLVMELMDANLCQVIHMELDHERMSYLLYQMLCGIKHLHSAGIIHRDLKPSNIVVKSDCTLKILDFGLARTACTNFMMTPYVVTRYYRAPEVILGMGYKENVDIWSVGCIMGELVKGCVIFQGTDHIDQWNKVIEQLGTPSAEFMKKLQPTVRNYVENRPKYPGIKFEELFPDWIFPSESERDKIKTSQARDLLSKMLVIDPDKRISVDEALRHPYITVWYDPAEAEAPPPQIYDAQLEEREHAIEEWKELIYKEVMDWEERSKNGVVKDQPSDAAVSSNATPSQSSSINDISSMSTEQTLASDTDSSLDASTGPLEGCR

NCCNc1cccc(-c2ccnc3[nH]c4ccccc4c23)c1 [AS283]
residual kinase activity in % of maximal activity [1]: 95% | CaMKII movement after photoactivation of paCaMKII T286A ([2]; AS283 10 μM): robust CaMKII movement | synaptic enrichment after photoactivation (sheet 6b) ([2]; paCaMKII T286A + AS283, individual neurons): 1.441 and 1.27 and 1.593 and 1.399 and 1.769 and 1.014 and 1.25 and 1.28 and 1.281 and 1.778 | remaining activity at 1 µM [3]: 58% | remaining activity at 1 µM [4]: 50% | remaining activity at 1 µM [5]: 97% | remaining activity at 1 µM [6]: 3% | residual kinase activity in % of maximal activity [7]: 82% | remaining activity at 1 µM [8]: 115% | remaining activity at 1 µM [9]: 42% | remaining activity at 1 µM [10]: 5% | LTP quantification (fEPSP slope, last 10 min post-HFS, normalized to baseline) ([11]; AS283 10uM): 152.979% and 135.393% and 153.277% | fEPSP slope (normalized to baseline) ([11]; AS283 10uM, Time (min) -4): 104.452% and 102.587% and 97.9392% | fEPSP slope (normalized to baseline) ([11]; AS283 10uM, Time (min) -5): 97.455% and 97.2289% and 102.244% | fEPSP slope (normalized to baseline) ([11]; AS283 10uM, Time (min) -6): 99.4541% and 99.1179% and 105.524% | fEPSP slope (normalized to baseline) ([11]; AS283 10uM, Time (min) -7): 101.753% and 102.819% and 102.999% | fEPSP slope (normalized to baseline) ([11]; AS283 10uM, Time (min) -8): 95.5559% and 104.449% and 104.231% | fEPSP slope (normalized to baseline) ([11]; AS283 10uM, Time (min) -9): 92.9571% and 97.0204% and 97.7789% | fEPSP slope (normalized to baseline) ([11]; AS283 10uM, Time (min) -10): 99.8539% and 98.6506% and 100.547% | fEPSP slope (normalized to baseline) ([11]; AS283 10uM, Time (min) -11): 103.952% and 101.834% and 101.778% | fEPSP slope (normalized to baseline) ([11]; AS283 10uM, Time (min) -12): 101.553% and 101.652% and 98.229% | fEPSP slope (normalized to baseline) ([11]; AS283 10uM, Time (min) -13): 102.353% and 99.9177% and 99.6311% | LTP quantification (fEPSP slope, last 10 min post-HFS, normalized to baseline) ([11]; AS283 30uM): 160.389% and 108.532% and 181.434% and 162.892% and 172.846% and 114.329% and 178.329% | fEPSP slope (normalized to baseline) ([11]; AS283 30uM, Time (min) -4): 104.315% and 98.2615% and 101.701% and 97.3586% and 99.2226% and 91.7266% and 101.169% | fEPSP slope (normalized to baseline) ([11]; AS283 30uM, Time (min) -5): 101.784% and 110.1% and 99.6307% and 92.306% and 111.307% and 95.4361% and 105.648% | fEPSP slope (normalized to baseline) ([11]; AS283 30uM, Time (min) -6): 100.097% and 110.1% and 101.96% and 97.1642% and 103.039% and 95.0989% and 110.591% | fEPSP slope (normalized to baseline) ([11]; AS283 30uM, Time (min) -7): 104.877% and 108.522% and 113.432% and 111.35% and 97.9505% and 103.53% and 108.737% | fEPSP slope (normalized to baseline) ([11]; AS283 30uM, Time (min) -8): 104.034% and 98.6561% and 118.004% and 96.7756% and 91.5901% and 101.506% and 110.436% | fEPSP slope (normalized to baseline) ([11]; AS283 30uM, Time (min) -9): 106.283% and 106.154% and 107.653% and 91.3344% and 103.039% and 101.844% and 106.575% | fEPSP slope (normalized to baseline) ([11]; AS283 30uM, Time (min) -10): 103.19% and 102.997% and 101.442% and 97.5529% and 105.583% and 95.4361% and 107.965% | fEPSP slope (normalized to baseline) ([11]; AS283 30uM, Time (min) -11): 100.66% and 97.0777% and 100.58% and 104.937% and 103.675% and 93.0755% and 112.753% | fEPSP slope (normalized to baseline) ([11]; AS283 30uM, Time (min) -12): 100.379% and 102.602% and 99.6307% and 99.8848% and 96.6784% and 98.4712% and 119.858% | fEPSP slope (normalized to baseline) ([11]; AS283 30uM, Time (min) -13): 101.784% and 99.0508% and 93.2474% and 96.5813% and 96.6784% and 98.8084% and 114.606% | effect on LTP induction in WT mice ([11]; AS283 10 or 30 µM): failed to block | remaining activity at 1 µM [12]: 68%

CC(C)(C)n1nc(Cc2cccc3ccccc23)c2c(N)ncnc21 [NM-PP1]
CaMKII synaptic enrichment ([13]; NMPP1, before cLTP, individual neurons): 1.065 and 0.7915 and 0.7418 and 0.4255 and 0.8744 and 0.8871 | CaMKII synaptic enrichment ([13]; after cLTP in NMPP1, individual neurons): 1.554 and 1.155 and 0.8796 and 0.5587 and 1.358 and 1.0618 | CaMKII movement after photoactivation of paCaMKII F89G ([14]; NM-PP1 10 μM): enabled similar movement | synaptic enrichment after photoactivation (sheet 6e) ([14]; paCaMKII F89G + NM-PP1, individual neurons): 1.231 and 1.446 and 1.136 and 1.385 and 1.127 and 1.67 and 1.6203 and 1.284 and 0.7763 and 1.224 and 1.168 and 1.296 and 1.013 and 0.919 and 1.131 and 1.135 and 1.776
